Experimental data taken from patent US20110105515A1, “TARGETING THE ONCOPROTEIN NUCLEOPHOSMIN” (President and Fellows of Harvard College, priority 2007, published 2011).

Columns and labels:
MALME-3M = assay: cells; conditions: Homo sapiens, 48 h
NCI-H226 = assay: cells; conditions: Homo sapiens, NCI-H226, 48 h
OVCAR-8 = assay: cells; conditions: Homo sapiens, OVCAR-8, 48 h
SF-295 = assay: cells; conditions: Homo sapiens, SF-295, 48 h
MOLT-4 = assay: cells; conditions: Homo sapiens, MOLT-4, 48 h
TK-10 = assay: cells; conditions: Homo sapiens, TK-10, 48 h
SK-MEL-28 = assay: cells; conditions: Homo sapiens, SK-MEL-28, 48 h
OVCAR-4 = assay: cells; conditions: Homo sapiens, OVCAR-4, 48 h
M14 = assay: cells; conditions: Homo sapiens, M14, 48 h
786-0 = assay: cells; conditions: Homo sapiens, 786-0, 48 h
MDA-MB-435 = assay: cells; conditions: Homo sapiens, MDA-MB-435, 48 h
MDA-MB-231/ATCC = assay: cells; conditions: Homo sapiens, MDA-MB-231, 48 h
HOP-92 = assay: NCI 60 cell lines, SRB assay: HOP-92
KM12 = assay: cells; conditions: Homo sapiens, KM12, 48 h
HCC-2998 = assay: cells; conditions: Homo sapiens, HCC 2998, 48 h
K-562 = assay: cells; conditions: Homo sapiens, K562, 48 h
MDA-MB-468 = assay: cells; conditions: Homo sapiens, MDA-MB-468, 48 h
SF-268 = assay: cells; conditions: Homo sapiens, SF-268, 48 h
BT-549 = assay: cells; conditions: Homo sapiens, BT-549, 48 h
SNB-75 = assay: cells; conditions: Homo sapiens, SNB-75, 48 h
SN12C = assay: cells; conditions: Homo sapiens, 48 h
UACC62 = assay: cells; conditions: Homo sapiens, UACC-62, 48 h
OVCAR-5 = assay: cells; conditions: Homo sapiens, OVCAR-5, 48 h
NCI-H23 = assay: cells; conditions: Homo sapiens, NCI-H23, 48 h
UACC-257 = assay: cells; conditions: Homo sapiens, UACC-257, 48 h
LOX IMVI = assay: cells; conditions: Homo sapiens, 48 h
HS578T = assay: cells; conditions: Homo sapiens, Hs-578T, 48 h
EKVX = assay: cells; conditions: Homo sapiens, 48 h
NCI-H522 = assay: cells; conditions: Homo sapiens, NCI-H522, 48 h
DU-145 = assay: cells; conditions: Homo sapiens, DU-145, 48 h
HCT-15 = assay: cells; conditions: Homo sapiens, HCT-15, 48 h
A498 = assay: cells; conditions: Homo sapiens, A498, 48 h
HT29 = assay: cells; conditions: Homo sapiens, HT-29, 48 h
SF-539 = assay: cells; conditions: Homo sapiens, SF-539, 48 h

[2H]On1c2c(c3ccc4c(c31)C=CC(C)(C)O4)C(OC([2H])([2H])[2H])[C@@]13NC(=O)C4(CCCN4C1=O)CC3C2(C)C (some centres unmarked) [Deuterated Methanol Adduct]
GI50 (MALME-3M): 174 nM | CC50 (MALME-3M; read-out: LC50): 5090 nM | GI50 (NCI-H226): 391 nM | CC50 (NCI-H226; read-out: LC50): 4120 nM | GI50 (OVCAR-8): 960 nM | CC50 (OVCAR-8; read-out: LC50): 4770 nM | GI50 (SF-295): 1280 nM | CC50 (SF-295; read-out: LC50): 5810 nM | GI50 (MOLT-4): 229 nM | CC50 (MOLT-4; read-out: LC50): 8560 nM | GI50 (TK-10): 1070 nM | CC50 (TK-10; read-out: LC50): 5150 nM | GI50 (SK-MEL-28): 457 nM | CC50 (SK-MEL-28; read-out: LC50): 4370 nM | GI50 (OVCAR-4): 373 nM | CC50 (OVCAR-4; read-out: LC50): 4140 nM | GI50 (M14): 1060 nM | CC50 (M14; read-out: LC50): 5900 nM | GI50 (786-0): 1200 nM | CC50 (786-0; read-out: LC50): 5020 nM | GI50 (MDA-MB-435): 395 nM | CC50 (MDA-MB-435; read-out: LC50): 4720 nM | GI50 (MDA-MB-231/ATCC): 538 nM | CC50 (MDA-MB-231/ATCC; read-out: LC50): 4320 nM | TGI (HOP-92; HOP-92 (Non-Small Cell Lung Cancer), 48 hours, SRB): 1300 nM | GI50 (HOP-92; Homo sapiens, HOP-92, 48 h): 222 nM | CC50 (HOP-92; Homo sapiens, HOP-92, 48 h, read-out: LC50): 4620 nM | GI50 (KM12): 1270 nM | CC50 (KM12; read-out: LC50): 5020 nM | GI50 (HCC-2998): 692 nM | CC50 (HCC-2998; read-out: LC50): 4710 nM | GI50 (K-562): 576 nM | CC50 (K-562; read-out: LC50): > 100000 nM | GI50 (MDA-MB-468): 292 nM | CC50 (MDA-MB-468; read-out: LC50): 6960 nM | GI50 (SF-268): 1500 nM | CC50 (SF-268; read-out: LC50): 6060 nM | GI50 (BT-549): 598 nM | CC50 (BT-549; read-out: LC50): 4690 nM | GI50 (SNB-75): 265 nM | CC50 (SNB-75; read-out: LC50): 4720 nM | GI50 (SN12C): 1120 nM | CC50 (SN12C; read-out: LC50): 4820 nM | GI50 (UACC62): 549 nM | CC50 (UACC62; read-out: LC50): 4390 nM | GI50 (OVCAR-5): 586 nM | CC50 (OVCAR-5; read-out: LC50): 4490 nM | GI50 (NCI-H23): 995 nM | CC50 (NCI-H23; read-out: LC50): 5900 nM | GI50 (UACC-257): 587 nM | CC50 (UACC-257; read-out: LC50): 4450 nM | GI50 (LOX IMVI): 969 nM | CC50 (LOX IMVI; read-out: LC50): 4630 nM | GI50 (HS578T): 492 nM | GI50 (EKVX): 594 nM | CC50 (EKVX; read-out: LC50): 4640 nM | GI50 (NCI-H522): 431 nM | CC50 (NCI-H522; read-out: LC50): 4820 nM | GI50 (DU-145): 1750 nM | CC50 (DU-145; read-out: LC50): 5590 nM | GI50 (HCT-15): 548 nM | CC50 (HCT-15; read-out: LC50): 4230 nM | GI50 (A498): 1020 nM | CC50 (A498; read-out: LC50): 4820 nM | GI50 (HT29): 1260 nM | CC50 (HT29; read-out: LC50): 68100 nM | GI50 (SF-539): 431 nM | CC50 (SF-539; read-out: LC50): 3830 nM
